Test results taken from US3944498A, “Germicidal detergent containing a thienyliodonium salt” (The Dow Chemical Company, priority 1973, dated 1976).

Assays:
[1] = system: organisms of mold and mildew; experiment: Protection of latex paint on wood panels from mold and mildew, tropical chamber; details: 0.3 percent by weight in latex paint, two months, 95 percent RH, 82°F
Protocol: 4-Chlorophenyl-2-thienyliodonium chloride is employed in a paint composition to protect the paint from attack and subsequent degradation by the organisms of mold and mildew. In such operations, the salt compound is dispersed and incorporated in the latex paint in the amount of 0.3 percent by weight of the ultimate paint composition.
The paint employed in these operations is prepared by intimately blending a pigment dispersion with a letdown including a synthetic latex comprising an interpolymer of ethyl acrylate, methyl methacrylate, acrylic acid and methacrylic acid. The paint has the following composition.
Wood panels are then painted with the modified compositions as well as with the unmodified paint. The panels are dried and thereafter exposed two months in a tropical chamber at a relative humidity of 95 percent and a temperature of 82°F. (28°C.). Following this period, the wood panels are examined to ascertain what control of […] is obtained.

[2] = system: Sprague-Dawley (Cox strain) rats; experiment: Oral median lethal dose in Sprague-Dawley (Cox strain) rats; format: in vivo; details: 708 mg/kg oral, 24 Hours
S. typhosa [3] = experiment: Agar plate kill test with Ivory soap, S. typhosa; format: cell-based; details: 48 h; 1 p.p.m., Ivory soap; read-out: Percent Kill of S. Typhosa
Protocol: Phenyl-2-thienyliodonium chloride, 2,2'-bisthienyliodonium chloride, and, for comparative purposes, diphenyliodonium chloride are individually dispersed in Ivory soap to provide concentrates containing 1 part by weight of iodonium salt to 50 parts by weight of soap. The soap concentrates are serially dispersed and serially diluted with liquid nutrient agar at 42°C. to prepare culture media containing various concentrations of one of the iodonium salts. The culture media are uniformly inoculated with S. aureus and plated in petri dishes. The inoculation is carried out from broth cultures of the named organism containing about 5×10^8 organisms per milliliter in the proportion of one-tenth milliliter of bacterial culture per 20 milliliters of cultur medium containing each test compound. In a check operation, nutrient agar containing the same amount of Ivory soap is similarly inoculated with the same organism. After two days' incubation at 37°C., the plates are examined for microbial growth.
The procedure described above is again repeated in a series of tests wherein the culture media are inoculated individually with the organism S. typhosa and wherein the culture media contain varying concentrations of one of the iodonium salts, as set forth in following Table II.

S. typhosa [4] = experiment: Nutrient agar growth test, S. typhosa (Example 3); format: cell-based; details: 0.001 percent by weight, 2 days, 35°C
Text: The 4-chlorophenyl-2-thienyliodonium chloride, trifluoroacetate and trichloroacetate salts are dispersed in melted nutrient agar to produce culture media containing 0.001 percent by weight of one of the salt compounds. Such melted media are then poured into petri dishes and the solidified surface in each dish inoculated with a 24-hour broth culture, one of the organisms S. aureus and S. typhosa. In a check operation, petri dishes containing unmodified nutrient agar are each individually inoculated in the same manner with the named organisms. After two days' incubation at 35°C. the agar surface in each dish is examined for microbial growth. […] At the time of these observations the check dishes are found to support a heavy growth of the two named organisms.

Compound: Clc1ccc([I+]c2cccs2)cc1.[Cl-] [4-Chlorophenyl-2-thienyliodonium chloride]
- control of growth of mold and mildew on painted panels [1]: complete control of the growth of the organisms of mold and mildew
- No. Dead ([2]; females): 0/10
- No. Dead ([2]; males): 1/10
- killing at 1 ppm (S. typhosa [3]): 100%
- microbial growth on agar surface (S. typhosa [4]): free of microbial growth
